Measured values from patent US20100204142A1, “USE OF THE PEPTIDE PHPFHLFVY (RENIN INHIBITOR) AS A THERAPEUTIC AGENT” (priority 2007, published 2010).
Where no end group is shown, it is not given here.

Experiments:
[1] = test system: HIV-1 infected CEM-SS cells (strain HIV-1IIIB); assay: HIV-1 antiviral assay (CPE reduction, MTS); format: cell-based; conditions: peptide 10 micrograms per ml, 6 days post-infection
CEM-SS cells = assay: Cytotoxicity in CEM-SS cells (MTS); conditions: CEM-SS cells plus peptide only, peptide 10 micrograms per ml
in vitro = format: cell-based; conditions: human, MRC-5 cells
Protocol: The following day, peptide was added and tested in duplicates.

Pseudomonas aeruginosa = format: cell-based; conditions: 5 micrograms per ml
Streptococcus pneumoniae = format: cell-based; conditions: 5 micrograms per ml
MRSA = conditions: 5 micrograms per ml
HepG2-2.2.15 cells = assay: Cytotoxicity in HepG2-2.2.15 cells (dye uptake); format: cell-based; conditions: dye uptake assay, % cell control
Protocol: HepG2-2.2.15 cells were plated in 96-well microtiter plates. After 16-24 hours the confluent monolayer of HepG2-2.2.15 cells was washed and the medium was replaced with complete medium containing test peptide—10 micrograms per ml—in duplicate. Lamivudine (3TC) was used as the positive control, while media alone was added to the cells as a negative control (virus control). Three days later the culture medium was replaced with fresh medium containing the peptide. Six days following the initial administration of the peptide, the cell culture supernatants was collected, treated with pronase and DNAse and then used in a real-time quantitative TaqMan PCR assay. The PCR-amplified HBV DNA was detected in real-time by monitoring increases in fluorescence signals that result from the exonucleolytic degradation of a quenched fluorescence probe molecule that hybridizes to the amplified HBV DNA. For each PCR amplification, a standard curve was simultaneously generated using dilutions of purified HBV DNA. Antiviral activity was calculated from the reduction in HBV DNA levels (% virus control). A novel dye uptake assay was then employed to measure cell viability, which is used to calculate toxicity (% cell control).

For `Cc1cn([C@H]2C[C@H](N=[N+]=[N-])[C@@H](CO)O2)c(=O)[nH]c1=O` [AZT], the “% CPE reduction in HIV-1 infected CEM-SS cells” value [1] was 99% and the “% Cell viability” value (CEM-SS cells) was 97%.

In the case of PHPFHLFVY-OH [Renin inhibitor], the viability at 144 h (in vitro) is reported as 100%, the “% inhibition” value (Pseudomonas aeruginosa) is reported as 0.0% and the “% inhibition” value (Streptococcus pneumoniae) is reported as 0.0%. For the same compound, the “% inhibition” value (MRSA) was 0.0%.

With `Nc1ccn([C@@H]2CS[C@H](CO)O2)c(=O)n1` [3TC, Lamivudine, reference compound] the “% Cell viability” value (HepG2-2.2.15 cells) was 95.8%.
